The structures appear in SMILES notation. Where two headings read alike, the source gives them in different places.

Data set [1] in a line: Human liver microsome stability. It is filed as in vitro ADME. The settings on record: human liver microsomes, pH 7.4. (Liver microsomes are vesicles of endoplasmic reticulum, rich in cytochrome P450 enzymes.)
Data set [2] addresses T1, MEK1 (Homo sapiens, UniProt Q02750).
T1 construct: purchased Thermo Fisher Scientific Inc. (MEK1, CRAF); Carna Biosciences, Inc. (ERK2)
The data set is described as follows: MEK1-inhibiting activity, fluorescent polarization method (CRAF/MEK1/ERK2 cascade, IMAP). The format is biochemical. The protocol: The MEK1-inhibiting activity of the compounds listed in Table 3 below were evaluated by the fluorescent polarization method as described below.

For data set [3], the target named is T2, BRAF (Homo sapiens, UniProt P15056).
T2 construct: purchased Eurofins Genomics KK; (BRAF); Thermo Fisher Scientific Inc. (MEK1)
T2 sequence (P15056 417-766 limits assumed): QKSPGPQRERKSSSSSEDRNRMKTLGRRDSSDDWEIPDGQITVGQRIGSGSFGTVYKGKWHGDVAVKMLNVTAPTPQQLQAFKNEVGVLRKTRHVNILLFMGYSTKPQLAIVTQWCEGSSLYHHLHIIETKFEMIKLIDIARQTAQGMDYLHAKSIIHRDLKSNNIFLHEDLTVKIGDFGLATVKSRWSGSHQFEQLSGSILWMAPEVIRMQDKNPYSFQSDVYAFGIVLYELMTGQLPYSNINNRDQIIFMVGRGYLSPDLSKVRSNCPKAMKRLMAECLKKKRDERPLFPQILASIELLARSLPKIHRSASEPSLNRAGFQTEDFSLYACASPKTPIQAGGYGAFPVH
The data set can be described thus: BRAF-inhibiting activity, time-resolved fluorescence-fluorescence resonance energy transfer assay. The format is biochemical. As for the experimental part: The BRAF-inhibiting activity of the compounds listed in Table 3 below was evaluated by the time-resolved fluorescence-fluorescence resonance energy transfer assay as described below.

The subject of data set [4] is A549. The data set is described as follows: Cell proliferation-inhibiting activity (ATP in viable cells, CellTiter-Glo), A549. The settings on record: read-out: A549 IC50. It is filed as cell-based, human.
Data set [5] has as its system NCI-H2122. The data set can be described thus: Cell proliferation-inhibiting activity (ATP in viable cells, CellTiter-Glo), NCI-H2122. The format is cell-based, human. To be noted: read-out: NCI-H2122 IC50. In general terms: In ATP-based viability assays light output follows the ATP content of the culture.
Setting [6] is: A549, 96 h, human lung cancer cells, 4 days.
[7] abbreviates: NCI-H2122, 96 h, human lung cancer cells, 4 days.
Setting [8] is: human lung cancer cells, 4 days.

T1 sequence (Q02750 whole entry): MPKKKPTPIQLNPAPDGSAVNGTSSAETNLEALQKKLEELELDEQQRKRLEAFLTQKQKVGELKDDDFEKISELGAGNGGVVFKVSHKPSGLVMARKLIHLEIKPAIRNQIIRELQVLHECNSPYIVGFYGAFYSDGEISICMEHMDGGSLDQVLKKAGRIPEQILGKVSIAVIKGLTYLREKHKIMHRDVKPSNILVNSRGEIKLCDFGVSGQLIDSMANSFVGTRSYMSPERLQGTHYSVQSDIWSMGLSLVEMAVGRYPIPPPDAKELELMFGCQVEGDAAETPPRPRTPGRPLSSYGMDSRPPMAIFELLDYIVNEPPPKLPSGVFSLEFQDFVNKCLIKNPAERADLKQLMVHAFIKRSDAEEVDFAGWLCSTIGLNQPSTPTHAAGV

The microsomal CLint is the rate of metabolic loss divided by the concentration. A low value points to slow turnover. By IC50 is commonly meant the concentration needed to halve the response being measured. In turn, `CC(O)CNS(=O)(=O)Nc1nccc(Cc2cc(C(N)=O)c(Nc3ccc(I)cc3F)c(F)c2F)c1F` (racemic) [Compound A-17, (+/-)-3,4-difluoro-5-[[3-fluoro-2-(2-hydroxypropylsulfamoylamino)pyridin-4-yl]methyl]-2-(2-fluoro-4-iodoanilino)benzamide] gave a microsomal CLint at 0.99 µM in data set [1] of 6 µL/min/mg. In addition, the IC50 in data set [2] was found to be 6 nM; in data set [3] (Table 3; read-out: BRAF IC50), 4 nM; in data set [4] (setting [6]), 53 nM; in data set [5] (setting [7]), 15 nM.

Consider `CNS(=O)(=O)Nc1nccc(Cc2cc(C(=O)NOC(C)C)c(Nc3ccc(I)cc3F)c(F)c2F)c1F` [Compound A-10, 3,4-Difluoro-2-(2-fluoro-4-iodoanilino)-5-[[3-fluoro-2-(methylsulfamoylamino)pyridin-4-yl]methyl]-N-propan-2-yloxybenzamide], for which, in data set [1], the intrinsic metabolic clearance (microsomal CLint) at 0.99 µM was determined as 89 µL/min/mg. Further, the IC50 in data set [2] (Table 3, read-out: MEK1 IC50) is 5 nM; in data set [3] (read-out: BRAF IC50; Table 3), 7 nM; in data set [4] (setting [6]) it was 0.1 nM; in data set [5] (setting [7]), 0.2 nM.

`COCCNS(=O)(=O)Nc1nccc(Cc2cc(C(=O)NOC(C)C)c(Nc3ccc(I)cc3F)c(F)c2F)c1F` [Compound A-11, 3,4-Difluoro-2-(2-fluoro-4-iodoanilino)-5-[[3-fluoro-2-(2-methoxyethylsulfamoylamino)pyridin-4-yl]methyl]-N-propan-2-yloxybenzamide] returned a microsomal CLint at 0.99 µM in data set [1] of 128 µL/min/mg. Moreover, the IC50 in data set [2] (Table 3, read-out: MEK1 IC50) came out at 7 nM; in data set [3] (read-out: BRAF IC50; Table 3), 9 nM; in data set [4] (setting [6]), 1 nM; in data set [5] (setting [7]), 1 nM.

Consider `C=Cc1ccc(Nc2c(C(N)=O)cc(Cc3ccnc(NS(=O)(=O)NC)c3F)c(F)c2F)c(F)c1` [Compound A-19, 2-(4-Ethenyl-2-fluoroanilino)-3,4-difluoro-5-[[3-fluoro-2-(methylsulfamoylamino)pyridin-4-yl]methyl]benzamide], for which, in data set [1], the microsomal CLint at 0.99 µM stood at 35 µL/min/mg. Also, the IC50 was 30 nM in data set [2] (Table 3, read-out: MEK1 IC50); 3 nM in data set [3] (Table 3; read-out: BRAF IC50); 6 nM in data set [4] (Homo sapiens, A549, 96 h); 5 nM in data set [5] (Homo sapiens, NCI-H2122, 96 h).

For `C#Cc1ccc(Nc2c(C(N)=O)cc(Cc3ccnc(NS(=O)(=O)NCCC)c3F)c(F)c2F)c(F)c1` [Compound A-20, 2-(4-ethynyl-2-fluoroanilino)-3,4-difluoro-5-[[3-fluoro-2-(propylsulfamoylamino)pyridin-4-yl]methyl]benzamide], in data set [1], the microsomal CLint at 0.99 µM amounted to 14 µL/min/mg. Further, the IC50 in data set [2] (Table 3, read-out: MEK1 IC50) is 23 nM; in data set [3] (Table 3; read-out: BRAF IC50), 2 nM; in data set [4] (Homo sapiens, A549, 96 h) it was 7 nM; in data set [5] (Homo sapiens, NCI-H2122, 96 h) it was 6 nM.

Turning to `NC(=O)c1cc(Cc2ccnc(NS(=O)(=O)NCC3COC3)c2F)c(F)c(F)c1Nc1ccc(I)cc1F` [Compound A-21, 3,4-difluoro-2-(2-fluoro-4-iodoanilino)-5-[[3-fluoro-2-(oxetan-3-ylmethylsulfamoylamino)pyridin-4-yl]methyl]benzamide], the microsomal CLint at 0.99 µM in data set [1] came out at 4 µL/min/mg. Also, the IC50 in data set [2] (Table 3, read-out: MEK1 IC50) worked out at 5 nM; in data set [3] (read-out: BRAF IC50; Table 3) it was 4 nM; in data set [4] (setting [6]), 31 nM; in data set [5] (setting [7]), 14 nM.

`NC(=O)c1cc(Cc2ccnc(NS(=O)(=O)NC3C4COCC43)c2F)c(F)c(F)c1Nc1ccc(I)cc1F` (stereo not drawn) [Compound A-22, 3,4-Difluoro-2-(2-fluoro-4-iodoanilino)-5-[[3-fluoro-2-(3-oxabicyclo[3. 1.0]hexan-6-ylsulfamoylamino)pyridin-4-yl]methyl]benzamide]: the IC50 in data set [2] (Table 3, read-out: MEK1 IC50) was found to be 6 nM; in data set [3] (Table 3; read-out: BRAF IC50), 2 nM; in data set [4] (setting [8]) it was 31 nM; in data set [5] (setting [8]), 10 nM.

In the case of `CC1(NS(=O)(=O)Nc2nccc(Cc3cc(C(N)=O)c(Nc4ccc(I)cc4F)c(F)c3F)c2F)CC1` [Compound A-23, 3,4-Difluoro-2-(2-fluoro-4-iodoanilino)-5-[[3-fluoro-2-[(1-methylcyclopropyl)sulfamoylamino]pyridin-4-yl]methyl]benzamide], in data set [1], the microsomal CLint at 0.99 µM was < 1 µL/min/mg. Further, the IC50 in data set [2] (Table 3, read-out: MEK1 IC50) was 35 nM; in data set [3] (read-out: BRAF IC50; Table 3), 5 nM; in data set [4] (setting [6]), 5 nM; in data set [5] (setting [7]), 1 nM.

As for `C#Cc1ccc(Nc2c(C(N)=O)cc(Cc3ccnc(NS(=O)(=O)NC)c3F)c(F)c2F)c(F)c1` [Compound A-26, 2-(4-Ethynyl-2-fluoroanilino)-3,4-difluoro-5-[[3-fluoro-2-(methylsulfamoylamino)pyridin-4-yl]methyl]benzamide], the microsomal CLint at 0.99 µM in data set [1] was found to be 13 µL/min/mg. The IC50 in data set [2] (Table 3, read-out: MEK1 IC50) worked out at 5 nM; in data set [3] (Table 3; read-out: BRAF IC50), 9 nM; in data set [4] (Homo sapiens, A549, 96 h), 7 nM; in data set [5] (Homo sapiens, NCI-H2122, 96 h) it was 2 nM.

On to `CNS(=O)(=O)Nc1nccc(Cc2cc(C(N)=O)c(Nc3ccc(Br)cc3F)c(F)c2F)c1F` [Compound A-27, 2-(4-bromo-2-fluoroanilino)-3,4-difluoro-5-[[3-fluoro-2-(methylsulfamoylamino)pyridin-4-yl]methyl]benzamide], for which, in data set [1], the microsomal CLint at 0.99 µM was 4 µL/min/mg. For the same compound, the IC50 in data set [2] (Table 3, read-out: MEK1 IC50) stood at 32 nM; in data set [3] (read-out: BRAF IC50; Table 3), 7 nM; in data set [4] (setting [6]), 24 nM; in data set [5] (setting [7]), 10 nM.

Compound `NC(=O)c1cc(Cc2ccnc(NS(=O)(=O)NC34CC(C3)C4)c2F)c(F)c(F)c1Nc1ccc(I)cc1F` [Compound A-28, 5-[[2-(1-Bicyclo[1.1.1]pentanylsulfamoylamino)-3-fluoropyridin-4-yl]methyl]-3,4-difluoro-2-(2-fluoro-4-iodoanilino)benzamide] showed a microsomal CLint at 0.99 µM in data set [1] of 11 µL/min/mg. Further, the IC50 is 13 nM in data set [2] (Table 3, read-out: MEK1 IC50); 9 nM in data set [3] (read-out: BRAF IC50; Table 3); 5 nM in data set [4] (setting [6]); 2 nM in data set [5] (setting [7]).

On to `NC(=O)c1cc(Cc2ccnc(NS(=O)(=O)NC3CCOCC3)c2F)c(F)c(F)c1Nc1ccc(I)cc1F` [Compound A-29], for which, in data set [1], the microsomal CLint at 0.99 µM is 18 µL/min/mg. Further, the IC50 is 14 nM in data set [2] (Table 3, read-out: MEK1 IC50); 11 nM in data set [3] (Table 3; read-out: BRAF IC50); 28 nM in data set [4] (setting [6]); 6 nM in data set [5] (setting [7]).

`NC(=O)c1cc(Cc2ccnc(NS(=O)(=O)NC3CCC3)c2F)c(F)c(F)c1Nc1ccc(I)cc1F` [Compound A-32, 5-[[2-(Cyclobutylsulfamoylamino)-3-fluoropyridin-4-yl]methyl]-3,4-dif luoro-2-(2-fluoro-4-iodoanilino)benzamide] returned a microsomal CLint at 0.99 µM in data set [1] of 19 µL/min/mg. For the same compound, the IC50 in data set [2] (Table 3, read-out: MEK1 IC50) was found to be 25 nM; in data set [3] (read-out: BRAF IC50; Table 3), 6 nM; in data set [4] (setting [6]), 7 nM; in data set [5] (setting [7]), 5 nM.

Compound `CCS(=O)(=O)Nc1nccc(Cc2cc(C(N)=O)c(Nc3ccc(I)cc3F)c(F)c2F)c1F` [Compound A-38, 5-[[2-(Ethylsulfonylamino)-3-fluoropyridin-4-yl]methyl]-3,4-difluoro-2-(2-fluoro-4-iodoanilino)benzamide] yielded a microsomal CLint at 0.99 µM in data set [1] of 17 µL/min/mg. Besides, the IC50 in data set [2] (Table 3, read-out: MEK1 IC50) worked out at 16 nM; in data set [3] (read-out: BRAF IC50; Table 3), 3 nM; in data set [4] (setting [6]), 66 nM; in data set [5] (setting [7]), 15 nM.

Regarding `CCCNS(=O)(=O)Nc1nccc(Cc2cc(C(=O)NOCCO)c(Nc3ccc(I)cc3F)c(F)c2F)c1F` [Compound A-45, 3,4-Difluoro-2-(2-fluoro-4-iodoanilino)-5-[[3-fluoro-2-(propylsulfamoylamino)pyridin-4-yl]methyl]-N-(2-hydroxyethoxy)benzamide], the half-maximal inhibitory concentration (IC50) in data set [2] (Table 3, read-out: MEK1 IC50) turned out to be 2 nM; in data set [3] (read-out: BRAF IC50; Table 3) it was 6 nM; in data set [4] (setting [6]), 5 nM; in data set [5] (setting [7]), 1 nM.

In turn, `CCCS(=O)(=O)Nc1nccc(Cc2cc(C(N)=O)c(Nc3ccc(I)cc3F)c(F)c2F)c1F` [Compound B-8] came in with a microsomal CLint at 0.99 µM in data set [1] of 24 µL/min/mg. In addition, the IC50 in data set [2] (Table 3, read-out: MEK1 IC50) was 47 nM; in data set [3] (read-out: BRAF IC50; Table 3), 7 nM; in data set [4] (setting [6]), 95 nM; in data set [5] (setting [7]) it was 14 nM.

In data set [1], `NC(=O)c1cc(Cc2ccnc(NS(=O)(=O)NCCO)c2F)c(F)c(F)c1Nc1ccc(I)cc1F` [Compound B-9, 3,4-Difluoro-5-[[3-fluoro-2-(2-hydroxyethylsulfamoylamino)pyridin-4-yl]methyl]-2-(2-fluoro-4-iodoanilino)benzamide] displayed a microsomal CLint at 0.99 µM of 11 µL/min/mg. Further, the IC50 in data set [2] (Table 3, read-out: MEK1 IC50) is 2 nM; in data set [3] (read-out: BRAF IC50; Table 3), 4 nM; in data set [4] (setting [6]), 10 nM; in data set [5] (setting [7]), 7 nM.

In turn, `COCCNS(=O)(=O)Nc1cc(Cc2cc(C(N)=O)c(Nc3ccc(I)cc3F)c(F)c2F)ccn1` [Compound C-2, 3,4-Difluoro-2-(2-fluoro-4-iodoanilino)-5-[[2-(2-methoxyethylsulfamoylamino)pyridin-4-yl]methyl]benzamide] returned a microsomal CLint at 0.99 µM in data set [1] of 17 µL/min/mg. In addition, the IC50 in data set [2] (Table 3, read-out: MEK1 IC50) is 104 nM; in data set [3] (read-out: BRAF IC50; Table 3), 2 nM; in data set [4] (setting [6]), 16 nM; in data set [5] (setting [7]) it was 7 nM.

For the compound `CNS(=O)(=O)Nc1cc(Cc2cc(C(N)=O)c(Nc3ccc(I)cc3F)c(F)c2F)ccn1` [Compound C-3, 3,4-difluoro-2-(2-fluoro-4-iodoanilino)-5-[[2-(methylsulfamoylamino)pyridin-4-yl]methyl]benzamide], the microsomal CLint at 0.99 µM in data set [1] is 9 µL/min/mg. The IC50 in data set [2] (Table 3, read-out: MEK1 IC50) stood at 12 nM; in data set [3] (read-out: BRAF IC50; Table 3), 3 nM; in data set [4] (setting [6]), 1 nM; in data set [5] (setting [7]), 0.4 nM.
